Experiments:
[1] = Thermal stability of films (chromaticity): ΔE before and after hard baking; assay type: physicochemical; details: for ΔEab after baking at 230° C. for 1 h: dye in alkaline soluble acrylic resin film on glass, hard baked at 230° C. under air for 1 h, CIE Lab, D65/10
Experimental: 1.15 g of alkaline soluble acrylic resin solution (MIPHOTO RPR4022, supplied from Miwan Commercial Co., Ltd., 40 wt % of solid content in methyl 3-methoxypropionate) was mixed with 1.73 g of PGMEA (60 wt %). 0.189 g of Dye 1 was mixed in the alkaline soluble resin/PGMEA solution and stirred for 2 hours at room temperature using a shaker. The solution was filtered through a 0.45 μm PTFE filter to remove large particles. Then the filtered solution was spin coated onto a clean glass substrate with 400 rpm spin speed for 18 seconds. The obtained film was first dried at 90° C. under air atmosphere for 30 minutes, and then hard baked at 230° C. under air atmosphere for 1 hour. The CIE values (xyY values and lab values) and the transmittance were measured before and after the hard bake.
(4) Thermal Stability of Films (Chromaticity):
The wet film after spin coating is dried in oven at 90° C. for 30 minutes and then soft baked at 150° C. for 15 minutes. The chromaticity coordinates (L, a, b) are recorded with UltraScan Pro (Hunterlab) colorimeter. D65/10 light source is used and results are based on CIE Lab coordinates. After that the film is hard baked at target temperature (230° C.) for 1 hour and the new chromaticity coordinates (L′, a′, b′) are recorded with the method above. The thermal stability of a film is indicated by the difference of chromaticity coordinate before and after hard baking represented by the following formula;
ΔE=√{square root over ((L−L′)^2+(a−a′)^2+(b−b′)^2)}

[2] = Solubility in PGMEA; assay type: physicochemical; details: for Solubility in PGMEA: solvent PGMEA (propylene glycol monomethyl ether acetate)
[3] = comparison in words, referring to Table 1

CC(C)Nc1ccc(NC(C)C)c2c1C(=O)c1ccccc1C2=O [Solvent Blue 36]
ΔEab after baking at 230° C. for 1 h [1]: 33 (color almost | Solubility in PGMEA [2]: 1.9 wt %

C=CCN(CC=C)C(=O)COc1cc(C)c(Nc2ccc(Nc3c(C)cc(C)cc3C)c3c2C(=O)c2ccccc2C3=O)c(C)c1 [Dye 1, N,N-diallyl-acetamide modified anthraquinone]
thermal stability compared with the Comparative Examples [1, 3]: significant improvement | ΔEab after baking at 230° C. for 1 h [1]: 2.1 | solubility in PEGMEA compared with the Comparative Examples [2, 3]: significant improvement | Solubility in PGMEA [2]: 6.2 wt %

Cc1cc(C)c(Nc2ccc(Nc3c(C)cc(O)cc3C)c3c2C(=O)c2ccccc2C3=O)c(C)c1 [(1-((4-hydroxy-2,6-dimethylphenyl)amino)-4-(mesitylamino)-anthraquinone]
ΔEab after baking at 230° C. for 1 h [1]: 6.8 | Solubility in PGMEA [2]: 3.0 wt %

Cc1cc(C)c(Nc2ccc(Nc3c(C)cc(C)cc3C)c3c2C(=O)c2ccccc2C3=O)c(C)c1 [Solvent Blue 104, 1,4-bis(mesitylamino)anthraquinone]
ΔEab after baking at 230° C. for 1 h [1]: 7.9 | Solubility in PGMEA [2]: 0.6 wt %
